# According to patent publication US20060002911A1, “Association between a ppar ligand and an antioxidant agent and use thereof for treating obesity” (priority 2002, published 2006):
# Conditions: ob/ob mice, intraperitoneal route once a day for 14 days
# Protocol: Male C57 Black 6 ob/ob mice from 8 to 12 weeks old were used. […] After being weighed, the mice were treated with rosiglitazone (antidiabetic agent) on its own or in association with coenzyme Q10. […] In addition, the solution was pre-heated before injection. The mice were weighed every day and the weight obtained after 14 days of treatment was recorded.
smiles,measurement,setting,value
CN(CCOc1ccc(CC2SC(=O)NC2=O)cc1)c1ccccn1 (centres unmarked) [rosiglitazone],increase in the weight of the mice,,greater than or equal to 5 grams
same,increase in weight relative to initial weight,more than initial weight,about 10%
